# Measured values as given in patent US4012576A, “Antibiotic complex Bu 2183” (priority 1975, dated 1977).
# Like-named read-outs stand apart in the source and are kept apart here.
# Assays:
# E. coli A20107 = assay: MIC, two-fold agar dilution on Nutrient Agar; assay type: cell-based; settings: Escherichia coli, read-out: MIC
# Protocol: (§1) The minimum inhibitory concentrations (MIC) of Bu-2183 A and B were determined against a wide variety of bacteria by the two-fold agar dilution method on Nutrient Agar plates. The inocula-replicating device of Steers et al. was used. Inoculum size was adjusted to be 10^4 dilution of overnight culture of the test organisms in Heart Infusion Broth (Difco). The results are shown in Table 6 along with those of kanamycin which was comparatively tested as a reference antibiotic.
# E. coli A20895 = assay: MIC, two-fold agar dilution on Nutrient Agar; assay type: cell-based; settings: Escherichia coli, read-out: MIC
# Protocol: as §1
# E. coli JR 35/C600 = assay: MIC, two-fold agar dilution on Nutrient Agar; assay type: cell-based
# Protocol: as §1
# E. coli JR 66/W677 = assay: MIC, two-fold agar dilution on Nutrient Agar; assay type: cell-based; settings: Escherichia coli
# Protocol: as §1
# E. coli ML 1630 = assay: MIC, two-fold agar dilution on Nutrient Agar; assay type: cell-based; settings: Escherichia coli, read-out: MIC
# Protocol: as §1
# E. coli NIHJ [1] = assay: MIC, two-fold agar dilution on Nutrient Agar; assay type: cell-based; settings: Escherichia coli, read-out: MIC
# Protocol: as §1
# E. coli NR 79/W677 = assay: MIC, two-fold agar dilution on Nutrient Agar; assay type: cell-based; settings: Escherichia coli
# Protocol: as §1
# E. coli PO 1495 = assay: MIC, two-fold agar dilution on Nutrient Agar; assay type: cell-based
# Protocol: as §1
# E. coli R 5 = assay: MIC, two-fold agar dilution on Nutrient Agar; assay type: cell-based; settings: Escherichia coli
# Protocol: as §1
# Ent. cloacae A21006 = assay: MIC, two-fold agar dilution on Nutrient Agar; assay type: cell-based
# Protocol: as §1
# [2] = test system: K. pneumoniae Type 22-3038; assay: MIC, two-fold agar dilution on Nutrient Agar; assay type: cell-based
# Protocol: as §1
# Pr. morganii A20031 = assay: MIC, two-fold agar dilution on Nutrient Agar; assay type: cell-based
# Protocol: as §1
# Pr. vulgaris A9436 = assay: MIC, two-fold agar dilution on Nutrient Agar; assay type: cell-based; settings: Proteus vulgaris, read-out: MIC
# Protocol: as §1
# Prov. stuartii A20894 = assay: MIC, two-fold agar dilution on Nutrient Agar; assay type: cell-based
# Protocol: as §1
# Ps. aeruginosa A20601 = assay: MIC, two-fold agar dilution on Nutrient Agar; assay type: cell-based; settings: Pseudomonas aeruginosa, read-out: MIC
# Protocol: as §1
# Ps. aeruginosa GN 315 = assay: MIC, two-fold agar dilution on Nutrient Agar; assay type: cell-based
# Protocol: as §1
# Ps. aeruginosa No. 130 = assay: MIC, two-fold agar dilution on Nutrient Agar; assay type: cell-based
# Protocol: as §1
# S. aureus A20239 = assay: MIC, two-fold agar dilution on Nutrient Agar; assay type: cell-based; settings: Staphylococcus aureus, read-out: MIC
# Protocol: as §1
# S. aureus D133 = assay: MIC, two-fold agar dilution on Nutrient Agar; assay type: cell-based; settings: Staphylococcus aureus, read-out: MIC
# Protocol: as §1
# S. aureus D193 = assay: MIC, two-fold agar dilution on Nutrient Agar; assay type: cell-based
# Protocol: as §1
# S. aureus Smith [3] = assay: MIC, two-fold agar dilution on Nutrient Agar; assay type: cell-based; settings: Staphylococcus aureus, read-out: MIC
# Protocol: as §1
# Ser. marcescens A20019 = assay: MIC, two-fold agar dilution on Nutrient Agar; assay type: cell-based
# Protocol: as §1
# Ser. marcescens A21247 = assay: MIC, two-fold agar dilution on Nutrient Agar; assay type: cell-based; settings: Serratia marcescens, read-out: MIC
# Protocol: as §1
# E. coli NIHJ [4] = assay: Experimental infection of mice, median protective dose; assay type: in vivo; settings: Escherichia coli, sc, 120 h
# Protocol: (§2) Bu-2183 A and B were evaluated in vivo in experimental infections of mice. The pathogenic bacteria employed were S. aureus Smith, E. coli NIHJ and Ps. aeruginosa A9930. Mice were challenged with a 100 × LD50 dose of the pathogens in a 5% suspension of hog gastric mucin. A single subcutaneous treatment with the antibiotic was made immediately after the bacterial challenge (0 hour), and in a double dose schedule the antibiotic was administered at 0 and 3 hours after the challenge.
# Ps. aeruginosa A9930 = assay: as above; assay type: in vivo; settings: Pseudomonas aeruginosa, A9930, sc, 120 h
# Protocol: as §2
# S. aureus Smith [5] = assay: as above; assay type: in vivo; settings: Staphylococcus aureus, sc, 120 h
# Protocol: as §2
# Solubility = assay type: physicochemical; settings: base
# Titration in water = assay type: physicochemical
# [6] = Escherichia coli, PO1495, Table 6, Ec-2, read-out: MIC
# [7] = Enterobacter cloacae, A21006, Table 6, El-12, read-out: MIC
# [8] = Klebsiella pneumoniae, TYPE223038, Table 6, Kp-8, read-out: MIC
# [9] = Morganella morganii, A20031, Table 6, Pg-2, read-out: MIC
# [10] = Providencia stuartii, A20894, Table 6, Ps-2, read-out: MIC
# [11] = Pseudomonas aeruginosa, GN315, Table 6, Pa-27, read-out: MIC
# [12] = Pseudomonas aeruginosa, NO.130, Table 6, Pa-16, read-out: MIC
# [13] = Staphylococcus aureus, D193, Table 6, Sa-3, read-out: MIC
# [14] = Serratia marcescens, A20019, Table 6, Sm-1, read-out: MIC
# [15] = subcutaneous, single dose at 0 hour, 100 × LD50 challenge, read-out: PD50 (single dose)
# [16] = double dose at 0 and 3 hours after challenge, read-out: PD50 (double doses)
smiles,measurement,setting,value
CC(=O)NC1C(CO)OC(OC(C(O)CN)C(N)C(O)CO)C(O)C1O (stereo not shown) [Bu-2183 B],MIC,"E. coli A20107; A20107, Table 6, Ec-49",50 µg/mL
same,MIC,"E. coli A20895; A20895, Table 6, Ec-62",50 µg/mL
same,MIC,"E. coli JR 35/C600; Escherichia coli, JR35/C600",12.5 µg/mL
same,MIC,"E. coli JR 66/W677; JR66/W677, Table 6, Ec-53",25 µg/mL
same,MIC,"E. coli ML 1630; ML1630, Table 6, Ec-5",50 µg/mL
same,MIC,"E. coli NIHJ [1]; Table 6, Ec-1",50 µg/mL
same,MIC,"E. coli NR 79/W677; NR79/W677, Table 6, Ec-9",100 µg/mL
same,MIC,E. coli PO 1495; [6],50 µg/mL
same,MIC,"E. coli R 5; R5, Table 6, Ec-55",100 µg/mL
same,MIC,Ent. cloacae A21006; [7],100 µg/mL
same,MIC,[2]; [8],100 µg/mL
same,MIC,Pr. morganii A20031; [9],50 µg/mL
same,MIC,"Pr. vulgaris A9436; A9436, Table 6, Pv-1",50 µg/mL
same,MIC,Prov. stuartii A20894; [10],> 100 µg/mL
same,MIC,"Ps. aeruginosa A20601; A20601, Table 6, Pa-21",50 µg/mL
same,MIC,Ps. aeruginosa GN 315; [11],50 µg/mL
same,MIC,Ps. aeruginosa No. 130; [12],100 µg/mL
same,MIC,"S. aureus A20239; A20239, Table 6, Sa-10",100 µg/mL
same,MIC,"S. aureus D133; D133, Table 6, Sa-4",> 100 µg/mL
same,MIC,S. aureus D193; [13],25 µg/mL
same,MIC,"S. aureus Smith [3]; Table 6, Sa-2",50 µg/mL
same,MIC,Ser. marcescens A20019; [14],> 100 µg/mL
same,MIC,"Ser. marcescens A21247; A21247, Table 6, Sm-16",> 100 µg/mL
same,ED50,E. coli NIHJ [4]; [15],135 mg/kg
same,ED50,Ps. aeruginosa A9930; [15],540 mg/kg
same,ED50,S. aureus Smith [5]; [15],100 mg/kg
same,solubility in methanol and ethanol,Solubility,slightly soluble
same,"solubility in n-butanol, acetone and other common organic solvents",Solubility,practically insoluble
same,solubility in water,Solubility,soluble
same,pKa,Titration in water; read-out: pKa' (first value),7.15
same,pKa,Titration in water; read-out: pKa' (second value),9.35
CCC(=O)NC1C(CO)OC(OC(C(O)CN)C(N)C(O)CO)C(O)C1O (stereo not shown) [Bu-2183 A],MIC,"E. coli A20107; A20107, Table 6, Ec-49",12.5 µg/mL
same,MIC,"E. coli A20107; A20107, Table 7, Ec-49",25 µg/mL
same,MIC,"E. coli A20895; A20895, Table 6, Ec-62",12.5 µg/mL
same,MIC,"E. coli A20895; A20895, Table 7, Ec-62",25 µg/mL
same,MIC,"E. coli JR 35/C600; Escherichia coli, JR35/C600",6.3 µg/mL
same,MIC,"E. coli JR 35/C600; Table 7, Ec-10",6.3 µg/mL
same,MIC,"E. coli JR 66/W677; JR66/W677, Table 6, Ec-53",6.3 µg/mL
same,MIC,"E. coli JR 66/W677; JR66/W677, Table 7, Ec-53",25 µg/mL
same,MIC,"E. coli ML 1630; ML1630, Table 6, Ec-5",12.5 µg/mL
same,MIC,"E. coli ML 1630; ML1630, Table 7, Ec-5",25 µg/mL
same,MIC,"E. coli NIHJ [1]; Table 6, Ec-1",12.5 µg/mL
same,MIC,"E. coli NIHJ [1]; Table 7, Ec-1",25 µg/mL
same,MIC,"E. coli NR 79/W677; NR79/W677, Table 6, Ec-9",25 µg/mL
same,MIC,"E. coli NR 79/W677; NR79/W677, Table 7, Ec-9",12.5 µg/mL
same,MIC,E. coli PO 1495; [6],25 µg/mL
same,MIC,"E. coli PO 1495; Table 7, Ec-2",25 µg/mL
same,MIC,"E. coli R 5; R5, Table 6, Ec-55",25 µg/mL
same,MIC,"E. coli R 5; R5, Table 7, Ec-55",6.3 µg/mL
same,MIC,Ent. cloacae A21006; [7],25 µg/mL
same,MIC,"Ent. cloacae A21006; Table 7, El-12",25 µg/mL
same,MIC,[2]; [8],25 µg/mL
same,MIC,"[2]; Table 7, Kp-8 (printed Type 22-3028)",25 µg/mL
same,MIC,Pr. morganii A20031; [9],25 µg/mL
same,MIC,"Pr. morganii A20031; Table 7, Pg-2",25 µg/mL
same,MIC,"Pr. vulgaris A9436; A9436, Table 6, Pv-1",12.5 µg/mL
same,MIC,"Pr. vulgaris A9436; A9436, Table 7, Pv-1",25 µg/mL
same,MIC,Prov. stuartii A20894; [10],> 100 µg/mL
same,MIC,"Prov. stuartii A20894; Table 7, Ps-2",> 100 µg/mL
same,MIC,"Ps. aeruginosa A20601; A20601, Table 6, Pa-21",25 µg/mL
same,MIC,"Ps. aeruginosa A20601; A20601, Table 7, Pa-21",50 µg/mL
same,MIC,Ps. aeruginosa GN 315; [11],25 µg/mL
same,MIC,"Ps. aeruginosa GN 315; Table 7, Pa-27",25 µg/mL
same,MIC,Ps. aeruginosa No. 130; [12],25 µg/mL
same,MIC,"Ps. aeruginosa No. 130; Table 7, Pa-16",25 µg/mL
same,MIC,"S. aureus A20239; A20239, Table 6, Sa-10",25 µg/mL
same,MIC,"S. aureus A20239; A20239, Table 7, Sa-10",50 µg/mL
same,MIC,"S. aureus D133; D133, Table 6, Sa-4",25 µg/mL
same,MIC,"S. aureus D133; D133, Table 7, Sa-4",50 µg/mL
same,MIC,S. aureus D193; [13],25 µg/mL
same,MIC,"S. aureus D193; Table 7, Sa-3",25 µg/mL
same,MIC,"S. aureus Smith [3]; Table 6, Sa-2",12.5 µg/mL
same,MIC,"S. aureus Smith [3]; Table 7, Sa-2",25 µg/mL
same,MIC,Ser. marcescens A20019; [14],> 100 µg/mL
same,MIC,"Ser. marcescens A20019; Table 7, Sm-1",> 100 µg/mL
same,MIC,"Ser. marcescens A21247; A21247, Table 6, Sm-16",100 µg/mL
same,MIC,"Ser. marcescens A21247; A21247, Table 7, Sm-16",> 100 µg/mL
same,ED50,E. coli NIHJ [4]; [16],45 mg/kg
same,ED50,E. coli NIHJ [4]; [15],92 mg/kg
same,ED50,Ps. aeruginosa A9930; [16],80 mg/kg
same,ED50,Ps. aeruginosa A9930; [15],230 mg/kg
same,ED50,S. aureus Smith [5]; [16],36 mg/kg
same,ED50,S. aureus Smith [5]; [15],42 mg/kg
same,solubility in methanol and ethanol,Solubility,slightly soluble
same,"solubility in n-butanol, acetone and other common organic solvents",Solubility,practically insoluble
same,solubility in water,Solubility,soluble
same,pKa,Titration in water; read-out: pKa' (first value),6.9
same,pKa,Titration in water; read-out: pKa' (second value),9.4
